Experimental data published in US20140242609A1, “Diagnosis and treatment of kidney stones, methods and compositions therefor” (Washington University, priority 2013, published 2014).

Key:
[1] = circulating hormonal levels in SAHA treated mice (ELISA); format: in vivo, mouse; conditions: SAHA treatments versus vehicle
Protocol: FIG. 24 illustrates circulating hormonal levels in SAHA versus vehicle treated mouse kidneys. Serum PTH (A), 1,25-(OH)2-vitD3 (B) and FGF23 (C) levels were measured with ELISA and shown as mean±SEM, n=5.

CLDN14 mRNA = CLDN14 mRNA levels in primary cultures / freshly isolated mouse TALH cells (real-time PCR); format: cell-based; conditions: versus vehicle
Protocol: An immunomagnetic separation method was used to isolate the TAL cells from the mouse kidney (Hou et al., 2009). Antibodies against the TAL cell specific surface antigen, Tamm-Horsfall protein (THP), were coated onto the paramagnetic polystyrene beads (Dynabeads M-280; Dynal), allowing immunoprecipitation of the TAL cells from collagenase digested mouse kidneys. The isolated cells were plated in DMEM medium supplemented with 10% FBS, penicillin/streptomycin, and 1 mM sodium pyruvate for 16 hours, followed by immediate transfection with NFAT or antagomirs.
Total RNA including microRNA was extracted using Trizol (Invitrogen). Cellular mRNA was reverse transcribed using the Superscript-III kit (Invitrogen), followed by real-time PCR amplification using SYBR Green PCR Master Mix (Bio-Rad) and Eppendorf Realplex2S system. The design of claudin-14 primers was described above. The design of pri-miRNA primers was according to Ma et al., (2010). Results were expressed as 2^−ΔCt values with ΔCT=Ctgene−Ctβ-actin.
An immunomagnetic separation method was used to isolate the TALH cells from the mouse kidney. (Gong Y, et al. 2012 and Gong Y, et al. 2013) Antibodies against the TALH cell specific surface antigen, Tamm-Horsfall protein, were coated onto the paramagnetic polystyrene beads (Dynabeads M-280; Dynal), allowing immunoprecipitation of the TALH cells from collagenase digested mouse kidneys. The isolated cells were plated in DMEM medium supplemented with 10% FBS, penicillin/streptomycin, and 1 mM sodium pyruvate for 16 hours, followed by immediate treatment.
Total RNA including microRNA was extracted using Trizol (Invitrogen). Cellular mRNA was reverse transcribed using the Superscript-III kit (Invitrogen), followed by real-time PCR amplification using SYBR Green PCR Master Mix (Bio-Rad) and Eppendorf Realplex2S system. […] Results were expressed as 2^−ΔCt values with ΔCT=Ctgene−Ctβ-actin. […]
Total RNA including microRNA was extracted using Trizol (Invitrogen). […] Results were expressed as 2^−ΔCt values with ΔCT=Ctgene−Ctβ-actin. […]

[2] = cited from earlier work

| SMILES | circulating 1,25-(OH)2-vitD3 levels [1] | circulating FGF23 levels [1] | circulating PTH levels [1] | CLDN14 mRNA levels, downregulation (CLDN14 mRNA; 0.1 μM) [%] | CLDN14 mRNA levels, downregulation (CLDN14 mRNA; 0.33 μM) [%] | time to maximal serum concentration after oral administration ([2]; oral) [h] | half-life of absorbed cinacalcet ([2]; serum) [h] |
| --- | --- | --- | --- | --- | --- | --- | --- |
| O=C(CCCCCCC(=O)Nc1ccccc1)NO [SAHA, Suberanilohydroxamic acid] | None of these hormones changed | None of these hormones changed | None of these hormones changed | 38 | 54 | – | – |
| C[C@@H](NCCCc1cccc(C(F)(F)F)c1)c1cccc2ccccc12 [cinacalcet] | – | – | – | – | – | 1.5 to 3 | 30 to 40 |
